Columns and labels:
PPARγ = biological target: T1, PPARγ (Homo sapiens, UniProt P37231); experiment: PPARγ activation assay (gal4 PPARγ reporter gene) in PC12 cells; assay type: cell-based; conditions: 25 μM, n=10
T1 construct: GAL4 (fusion partner); expressed in transfected cells; host or cells: PC12 cells, transiently transfected with Lipofectamine 2000
T1 sequence (P37231 238-503 limits assumed): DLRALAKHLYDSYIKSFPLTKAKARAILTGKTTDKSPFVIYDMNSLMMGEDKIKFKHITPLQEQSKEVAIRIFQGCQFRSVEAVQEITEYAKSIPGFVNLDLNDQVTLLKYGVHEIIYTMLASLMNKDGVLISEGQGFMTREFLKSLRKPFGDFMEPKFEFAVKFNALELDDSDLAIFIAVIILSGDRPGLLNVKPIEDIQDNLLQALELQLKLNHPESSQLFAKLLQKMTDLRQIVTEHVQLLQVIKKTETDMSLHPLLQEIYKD
Method: In the PPARγ activation assay, an assay with the reporter gene gal4 PPARγ is performed, which allow assessing the activation of PPARγ induced by ligand, to which end concentrations of 30 and 60 μg/mL were used. PC12 cells were seeded in a 48-well plate at a density of 100,000 cells/well/250 μL of maintenance medium containing the medium RPMI1640® (Roswell Park Memorial Institute-1640 Medium) supplemented with 10% of horse serum (HS), 5% of fetal bovine serum (FBS) and 1× antibiotic/antimicotic (Ab-Am). Then, the DNA (0.8 μg luciferase plasmid (MH100tkLUC), 0.8 μg PPARγGAL4 plasmid and 0.053 μg β-galactosidase plasmid, (β-Gal)) were mixed in OptiMEM® (Opti-Minimun Essential Medium). This constitutes the DNA mixture. In parallel, lipofectamine 2000 was diluted in OptiMEM®. This constitutes the Lipofectamine® mixture. […] The lysate was collected, centrifuged for 1 minute at 14000 rpm, the β-galactosidase and luciferase activity in the supernatant was measured, and the times of PPARγ activation was calculated relative to the DMSO control (final concentration in the medium of 0.1%). In parallel, the activity of β-galactosidase was assessed (colorimetry). […] The activity results were expressed as times of increase in relation to the activity obtained with control cells (treated only with DMSO). […]

fabp4 gene = experiment: mRNA expression of adipocyte differentiation marker fabp4 in 3T3-L1 cells (qPCR); assay type: cell-based; conditions: 25 μM, 3T3-L1, day 7, n=3
Method: (§1) In order to assess the effect of the claimed extracts on differentiation of fibroblasts into adipocytes, 3T3-L1 cells are cultured at low passage, avoiding cells from reaching confluence. […] Thereafter, the maintenance medium was replaced.

3T3-L1 cells [1] = experiment: Differentiation of 3T3-L1 cells into adipocytes, Oil Red O accumulation; assay type: cell-based; conditions: 25 μM, 3T3-L1, day 10, n=4
Method: as §1

3T3-L1 cells [2] = experiment: MTT viability assay in 3T3-L1 cells of the differentiation assay; assay type: cell-based; conditions: 25 μM, 3T3-L1, n=3
Method: In order to assess the effect of the claimed extracts on differentiation of fibroblasts into adipocytes, 3T3-L1 cells are cultured at low passage, avoiding cells from reaching confluence. […] Thereafter, the maintenance medium was replaced. […] After removing MTT, DMSO (99.9%) was added to lyse cells and dissolve MTT/MTT formazan. In order to assess absorbance at 570 nm and 620 nm in a spectrophotometer, 100 μl of this solution were moved to a 96-well plate. The difference between absorbances was calculated, and the survival relative to the control (DMSO) was determined.

cortical neurons = experiment: Neuroprotection assay: cortical neurons damaged with oligomycin A, MTT viability; assay type: cell-based, rat
From the text: To assess the neuroprotective capacity of Extract B, a model of neuronal damage caused by chemical ischemia was used, preferably the model of damage caused by oligomycin A. Oligomycin A is a macrolide that blocks oxidative phosphorylation, inhibiting mitochondrial ATP synthase.
In order to assess the neuroprotective capacity, a primary culture of cortical neurons of stage E18 rat embryos was used. To this end, adult female rats were acquired, pregnant at stage 18, from the CINBIOT bioterium of the Faculty of Biological Science, Pontificia Universidad Católica de Chile. […]
On the 9th of culture, the challenge with oligomycin A was carried out. […] Thereafter, neuronal viability was determined, by removing the entire culture medium, it was washed once with PBS and incubated with 0.5 mg/mL of MTT in neurobasal medium without phenol red at 37° C. for 2 hours to establish the mitochondrial activity, wherein MTT (yellow) is transformed into MTT formazan (dark blue), when reduced by live cells. […] Subsequently, 100 μl of this solution were moved to a 96-wel plate to measure absorbance at 570 nm and 620 nm in spectrophotometer. The difference between absorbances (570-620) was calculated, and the survival was estimated relative to the control treated with DMSO and without damage caused by oligomycin A. The presence of MTT formazan is quantified at 570 nm. […]

## CC(C)C[C@H](NC(=O)OCC1c2ccccc2-c2ccccc21)C(=O)O [FMOC-Leu]
PPARγ
  PPARγ transcriptional activity, times higher than negative control: 14.7 times
fabp4 gene
  fabp4 mRNA expression, times relative to control DMSO: 1.7 times
3T3-L1 cells [1]
  Oil Red O (neutral lipid) accumulation, times relative to control: 1.1
3T3-L1 cells [2]
  cell survival (MTT) relative to control (DMSO): 100%

## vitamin E
Cortical neurons; 10 μM alone, data not shown
  protection against oligomycin A: does not provide protection

## CC[C@@H]1/C=C/C=C/C[C@H](C)[C@H](O)[C@](C)(O)C(=O)[C@H](C)[C@@H](O)[C@H](C)C(=O)[C@H](C)[C@@H](O)[C@H](C)/C=C/C(=O)O[C@H]2[C@@H](C)[C@@H](CC1)O[C@@]1(CC[C@@H](C)[C@@H](C[C@H](C)O)O1)[C@@H]2C [oligomycin A, Oligomycin A]
Cortical neurons; oligomycin A 2 μM 30 min, no extract, rat cortical neurons
  neuronal viability after oligomycin A, % of undamaged DMSO control: 22.5%
